Tested on: NL-RLuc virus (recombinant NL4-3 HIV with Renilla Luciferase gene)
Assay: Inhibition of HIV replication (NL-RLuc virus in MT-2 cells, luciferase readout)
Format: cell-based, Human immunodeficiency virus (HIV)
Conditions: MT2, 120 h
How it was run: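 EC50 derived via median effect equation from at least 2 experiments, using luciferase expression as virus-growth readout. Replication-competent NL-RLuc reporter virus (nef partly replaced by Renilla luciferase) infected MT-2 cells with serial compound dilutions; 5-day incubation in RPMI 1640 plus 10% FBS.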

Work on Cc1nc(C)c([C@H](OC(C)(C)C)C(=O)O)c(N2CCC(C)(C)CC2)c1-c1ccc2c(c1)CCN(c1nccc(N3CCCCC3)n1)C2 [Example 23, (2S)-2-(tert-Butoxy)-2-[4-(4,4-dimethylpiperidin-1-yl)-2,6-dimethyl-5-{2-[4-(piperidin-1-yl)pyrimidin-2-yl]-1,2,3,4-tetrahydroisoquinolin-6-yl}pyridin-3-yl]acetic Acid] yielded an EC50 of 3 nM.
In the case of Cc1nc(N2CCOCC2)cc(N2CCc3cc(-c4c(C)nc(C)c([C@H](OC(C)(C)C)C(=O)O)c4N4CCC(C)(C)CC4)ccc3C2)n1 [Example 64, (S)-2-(tert-Butoxy)-2-(4-(4,4-dimethylpiperidin-1-yl)-2,6-dimethyl-5-(2-(2-methyl-6-morpholinopyrimidin-4-yl)-1,2,3,4-tetrahydroisoquinolin-6-yl)pyridin-3-yl)acetic Acid], the EC50 is reported as 8 nM.
For CC1(C)CCN(c2c(-c3ccc4c(c3)CCN(c3ncnc5c3oc3ccccc35)C4)cnc(Cl)c2[C@H](OC(C)(C)C)C(=O)O)CC1 [Example 103, (S)-2-(5-(2-(Benzofuro[3,2-d]pyrimidin-4-yl)-1,2,3,4-tetrahydroisoquinolin-6-yl)-2-chloro-4-(4,4-dimethylpiperidin-1-yl)pyridin-3-yl)-2-(tert-butoxy)acetic Acid], the EC50 was 2 nM.
Cc1cccc(Cl)c1CN1CCc2cc(-c3c(NCCCN4CCCCC4)nc(C)c([C@H](OC(C)(C)C)C(=O)O)c3N3CCC(C)(C)CC3)ccc2C1 [Example 10, (S)-2-(tert-Butoxy)-2-(5-(2-(2-chloro-6-methylbenzyl)-1,2,3,4-tetrahydroisoquinolin-6-yl)-4-(4,4-dimethylpiperidin-1-yl)-2-methyl-6-((3-(piperidin-1-yl)propyl)amino)pyridin-3-yl)acetic Acid] gave an EC50 of 2 nM.
Compound Cc1nc(C)c([C@H](OC(C)(C)C)C(=O)O)c(N2CCC(C)(C)CC2)c1-c1ccc2c(c1)CCN(c1cccc(C(=O)O)n1)C2 [Example 142, (S)-6-(6-(5-(tert-Butoxy(carboxy)methyl)-4-(4,4-dimethylpiperidin-1-yl)-2,6-dimethylpyridin-3-yl)-3,4-dihydroisoquinolin-2(1H)-yl)picolinic Acid] has an EC50 of 381 nM.
In the case of Cc1nc(C)c([C@H](OC(C)(C)C)C(=O)O)c(N2CCC(C)(C)CC2)c1-c1ccc2c(c1)CCN(c1cc(N3CCOCC3)c(F)cn1)C2 [Example 91, (S)-2-(tert-Butoxy)-2-(4-(4,4-dimethylpiperidin-1-yl)-5-(2-(5-fluoro-4-morpholinopyridin-2-yl)-1,2,3,4-tetrahydroisoquinolin-6-yl)-2,6-dimethylpyridin-3-yl)acetic Acid], the EC50 is reported as 9 nM.
In the case of CC1(C)CCN(c2c(-c3ccc4c(c3)CCN(c3nccc(-c5cnccn5)n3)C4)cnc(Cl)c2[C@H](OC(C)(C)C)C(=O)O)CC1 [Example 153, (S)-2-(tert-Butoxy)-2-(2-chloro-4-(4,4-dimethylpiperidin-1-yl)-5-(2-(4-(pyrazin-2-yl)pyrimidin-2-yl)-1,2,3,4-tetrahydroisoquinolin-6-yl)pyridin-3-yl)acetic Acid], the EC50 is reported as 2 nM.
Work on Cc1nc(C)c([C@H](OC(C)(C)C)C(=O)O)c(N2CCC(C)(C)CC2)c1-c1ccc2c(c1)CCN(c1nccc(N3C4CCC3CN(C)C4)n1)C2 [Example 43, (2S)-2-(tert-Butoxy)-2-[4-(4,4-dimethylpiperidin-1-yl)-2,6-dimethyl-5-[2-(4-{3-methyl-3,8-diazabicyclo[3.2.1]octan-8-yl}pyrimidin-2-yl)-1,2,3,4-tetrahydroisoquinolin-6-yl]pyridin-3-yl]acetic Acid] yielded an EC50 of 3 nM.
For Cc1ncc(-c2ccc3c(c2)CCN(c2nccc(-c4cnccn4)n2)C3)c(N2CCC(C)(C)CC2)c1[C@H](OC(C)(C)C)C(=O)O [Example 147, (S)-2-(tert-Butoxy)-2-(4-(4,4-dimethylpiperidin-1-yl)-2-methyl-5-(2-(4-(pyrazin-2-yl)pyrimidin-2-yl)-1,2,3,4-tetrahydroisoquinolin-6-yl)pyridin-3-yl)acetic Acid], the EC50 was 2 nM.
With CC1(C)CCN(c2c(-c3ccc4c(c3)CCN(c3nccc(N5CCOCC5)n3)C4)cnc(Cl)c2[C@H](OC(C)(C)C)C(=O)O)CC1 [Example 148, (S)-2-(tert-Butoxy)-2-(2-chloro-4-(4,4-dimethylpiperidin-1-yl)-5-(2-(4-morpholinopyrimidin-2-yl)-1,2,3,4-tetrahydroisoquinolin-6-yl)pyridin-3-yl)acetic Acid] the EC50 was 0.2 nM.
Cc1nc(C)c([C@H](OC(C)(C)C)C(=O)O)c(N2CCC(C)(C)CC2)c1-c1ccc2c(c1)CCN(c1cc(N3CCC(N4CCN(C)CC4)CC3)ncn1)C2 [Example 136, (S)-2-(tert-Butoxy)-2-(4-(4,4-dimethylpiperidin-1-yl)-2,6-dimethyl-5-(2-(6-(4-(4-methylpiperazin-1-yl)piperidin-1-yl)pyrimidin-4-yl)-1,2,3,4-tetrahydroisoquinolin-6-yl)pyridin-3-yl)acetic Acid] showed an EC50 of 16 nM.
Cc1cccc(Cl)c1CN1CCc2cc(-c3c(CN(C)CC4CCOCC4)nc(Cl)c([C@H](OC(C)(C)C)C(=O)O)c3N3CCC(C)(C)CC3)ccc2C1 [Example 98, (S)-2-(tert-Butoxy)-2-(2-chloro-5-(2-(2-chloro-6-methylbenzyl)-1,2,3,4-tetrahydroisoquinolin-6-yl)-4-(4,4-dimethylpiperidin-1-yl)-6-((methyl((tetrahydro-2H-pyran-4-yl)methyl)amino)methyl)pyridin-3-yl)acetic Acid] gave an EC50 of 0.7 nM.
Work on Cc1nc(C)c([C@H](OC(C)(C)C)C(=O)O)c(N2CCC(C)(C)CC2)c1-c1ccc2c(c1)CCN(c1nc(N3CCOCC3)nn3cccc13)C2 [Example 84, (S)-2-(tert-Butoxy)-2-(4-(4,4-dimethylpiperidin-1-yl)-2,6-dimethyl-5-(2-(2-morpholinopyrrolo[2,1-f][1,2,4]triazin-4-yl)-1,2,3,4-tetrahydroisoquinolin-6-yl)pyridin-3-yl)acetic Acid] yielded an EC50 of 6 nM.
In the case of Cc1nc(CN2CCC2)c(-c2ccc3c(c2)CCN(c2ncnc4c2oc2ccccc24)C3)c(N2CCC(C)(C)CC2)c1[C@H](OC(C)(C)C)C(=O)O [Example 160, (S)-2-(6-(Azetidin-1-ylmethyl)-5-(2-(benzofuro[3,2-d]pyrimidin-4-yl)-1,2,3,4-tetrahydroisoquinolin-6-yl)-4-(4,4-dimethylpiperidin-1-yl)-2-methylpyridin-3-yl)-2-(tert-butoxy)acetic Acid], the EC50 is reported as 20 nM.
For Cc1nc(C)c([C@H](OC(C)(C)C)C(=O)O)c(N2CCC(C)(C)CC2)c1-c1ccc2c(c1)CCN(c1nccc(N3CCC(C)(C)CC3)n1)C2 [Example 24, (2S)-2-(tert-Butoxy)-2-[4-(4,4-dimethylpiperidin-1-yl)-5-{2-[4-(4,4-dimethylpiperidin-1-yl)pyrimidin-2-yl}-1,2,3,4-tetrahydroisoquinolin-6-yl}-2,6-dimethylpyridin-3-yl]acetic Acid], the EC50 was 8 nM.
Compound Cc1cccc(Cl)c1CN1CCc2cc(-c3c(NCCN4CCCCC4)nc(C)c([C@H](OC(C)(C)C)C(=O)O)c3N3CCC(C)(C)CC3)ccc2C1 [Example 4, (S)-2-(tert-Butoxy)-2-(5-(2-(2-chloro-6-methylbenzyl)-1,2,3,4-tetrahydroisoquinolin-6-yl)-4-(4,4-dimethylpiperidin-1-yl)-2-methyl-6-((2-(piperidin-1-yl)ethyl)amino)pyridin-3-yl)acetic Acid] has an EC50 of 4 nM.
In the case of Cc1nc(C)c([C@H](OC(C)(C)C)C(=O)O)c(N2CCC(C)(C)CC2)c1-c1ccc2c(c1)CCN(c1ncc(F)cc1F)C2 [Example 72, (S)-2-(tert-Butoxy)-2-(5-(2-(3,5-difluoropyridin-2-yl)-1,2,3,4-tetrahydroisoquinolin-6-yl)-4-(4,4-dimethylpiperidin-1-yl)-2,6-dimethylpyridin-3-yl)acetic Acid], the EC50 is reported as 8 nM.
Cc1nc(C)c([C@H](OC(C)(C)C)C(=O)O)c(N2CCC(C)(C)CC2)c1-c1ccc2c(c1)CCN(c1ccnc(N3CCC(C(C)(C)O)CC3)n1)C2 [Example 71, (S)-2-(tert-Butoxy)-2-(4-(4,4-dimethylpiperidin-1-yl)-5-(2-(2-(4-(2-hydroxypropan-2-yl)piperidin-1-yl)pyrimidin-4-yl)-1,2,3,4-tetrahydroisoquinolin-6-yl)-2,6-dimethylpyridin-3-yl)acetic Acid] showed an EC50 of 4 nM.
Compound Cc1nc(C)c([C@H](OC(C)(C)C)C(=O)O)c(N2CCC(C)(C)CC2)c1-c1ccc2c(c1)CCN(c1cc(N3CCOCC3)ccn1)C2 [Example 83, (S)-2-(tert-Butoxy)-2-(4-(4,4-dimethylpiperidin-1-yl)-2,6-dimethyl-5-(2-(4-morpholinopyridin-2-yl)-1,2,3,4-tetrahydroisoquinolin-6-yl)pyridin-3-yl)acetic Acid] has an EC50 of 5 nM.
Cc1nc(C)c([C@H](OC(C)(C)C)C(=O)O)c(N2CCC(C)(C)CC2)c1-c1ccc2c(c1)CCN(c1nccc(N3CCN(C)CC3)n1)C2 [Example 40, (2S)-2-(tert-Butoxy)-2-[4-(4,4-dimethylpiperidin-1-yl)-2,6-dimethyl-5-{2-[4-(4-methylpiperazin-1-yl)pyrimidin-2-yl]-1,2,3,4-tetrahydroisoquinolin-6-yl}pyridin-3-yl]acetic Acid] was tested, and the EC50 was 4 nM.
CC1(C)CCN(c2c(-c3ccc4c(c3)CCN(c3nccc(N5CCOCC5)n3)C4)c(CN3CCC4(CCC4)CC3)nc(Cl)c2[C@H](OC(C)(C)C)C(=O)O)CC1 [Example 150, (S)-2-(6-((7-Azaspiro[3.5]nonan-7-yl)methyl)-2-chloro-4-(4,4-dimethylpiperidin-1-yl)-5-(2-(4-morpholinopyrimidin-2-yl)-1,2,3,4-tetrahydroisoquinolin-6-yl)pyridin-3-yl)-2-(tert-butoxy)acetic Acid] gave an EC50 of 0.3 nM.
Work on Cc1ncc(-c2ccc3c(c2)CCN(c2ncnc4c2oc2ncccc24)C3)c(N2CCC(C)(C)CC2)c1[C@H](OC(C)(C)C)C(=O)O [Example 48, (2S)-2-(tert-Butoxy)-2-[4-(4,4-dimethylpiperidin-1-yl)-2-methyl-5-(2-{8-oxa-3,5,10-triazatricyclo[7.4.0.0^2,7]trideca-1(9),2,4,6,10,12-hexaen-6-yl}-1,2,3,4-tetrahydroisoquinolin-6-yl)pyridin-3-yl]acetic Acid] yielded an EC50 of 0.6 nM.

From US20200016136A1 (VIIV HEALTHCARE UK (NO. 5) LIMITED, priority 2017, published 2020)
